Results published in US20250221964A1, “Substituted Isoxazoles as Selective Nav1.7 Inhibitors for Pain Treatment and Method of Pain Treatment” (Board of Regents, The University of Texas System, priority 2021, published 2025).
Like-named read-outs stand apart in the source and are kept apart here.

Tests used:
[1] = molecular target: hNav1.7 (Homo sapiens, UniProt Q15858); assay: Nav1.7 in vitro inhibition assay; type: cell-based; settings: for subtype selectivity (Nav1.7 vs. Nav1.5): in words
[2] = test system: muscarinic receptors in the rat cerebral cortex; settings: cited from earlier work
[3] = molecular target: hNav1.5 (Homo sapiens, UniProt Q14524); assay: Nav1.5 in vitro inhibition assay; type: cell-based; settings: in vitro testing
hNav1.5, sequence (Q14524 whole entry): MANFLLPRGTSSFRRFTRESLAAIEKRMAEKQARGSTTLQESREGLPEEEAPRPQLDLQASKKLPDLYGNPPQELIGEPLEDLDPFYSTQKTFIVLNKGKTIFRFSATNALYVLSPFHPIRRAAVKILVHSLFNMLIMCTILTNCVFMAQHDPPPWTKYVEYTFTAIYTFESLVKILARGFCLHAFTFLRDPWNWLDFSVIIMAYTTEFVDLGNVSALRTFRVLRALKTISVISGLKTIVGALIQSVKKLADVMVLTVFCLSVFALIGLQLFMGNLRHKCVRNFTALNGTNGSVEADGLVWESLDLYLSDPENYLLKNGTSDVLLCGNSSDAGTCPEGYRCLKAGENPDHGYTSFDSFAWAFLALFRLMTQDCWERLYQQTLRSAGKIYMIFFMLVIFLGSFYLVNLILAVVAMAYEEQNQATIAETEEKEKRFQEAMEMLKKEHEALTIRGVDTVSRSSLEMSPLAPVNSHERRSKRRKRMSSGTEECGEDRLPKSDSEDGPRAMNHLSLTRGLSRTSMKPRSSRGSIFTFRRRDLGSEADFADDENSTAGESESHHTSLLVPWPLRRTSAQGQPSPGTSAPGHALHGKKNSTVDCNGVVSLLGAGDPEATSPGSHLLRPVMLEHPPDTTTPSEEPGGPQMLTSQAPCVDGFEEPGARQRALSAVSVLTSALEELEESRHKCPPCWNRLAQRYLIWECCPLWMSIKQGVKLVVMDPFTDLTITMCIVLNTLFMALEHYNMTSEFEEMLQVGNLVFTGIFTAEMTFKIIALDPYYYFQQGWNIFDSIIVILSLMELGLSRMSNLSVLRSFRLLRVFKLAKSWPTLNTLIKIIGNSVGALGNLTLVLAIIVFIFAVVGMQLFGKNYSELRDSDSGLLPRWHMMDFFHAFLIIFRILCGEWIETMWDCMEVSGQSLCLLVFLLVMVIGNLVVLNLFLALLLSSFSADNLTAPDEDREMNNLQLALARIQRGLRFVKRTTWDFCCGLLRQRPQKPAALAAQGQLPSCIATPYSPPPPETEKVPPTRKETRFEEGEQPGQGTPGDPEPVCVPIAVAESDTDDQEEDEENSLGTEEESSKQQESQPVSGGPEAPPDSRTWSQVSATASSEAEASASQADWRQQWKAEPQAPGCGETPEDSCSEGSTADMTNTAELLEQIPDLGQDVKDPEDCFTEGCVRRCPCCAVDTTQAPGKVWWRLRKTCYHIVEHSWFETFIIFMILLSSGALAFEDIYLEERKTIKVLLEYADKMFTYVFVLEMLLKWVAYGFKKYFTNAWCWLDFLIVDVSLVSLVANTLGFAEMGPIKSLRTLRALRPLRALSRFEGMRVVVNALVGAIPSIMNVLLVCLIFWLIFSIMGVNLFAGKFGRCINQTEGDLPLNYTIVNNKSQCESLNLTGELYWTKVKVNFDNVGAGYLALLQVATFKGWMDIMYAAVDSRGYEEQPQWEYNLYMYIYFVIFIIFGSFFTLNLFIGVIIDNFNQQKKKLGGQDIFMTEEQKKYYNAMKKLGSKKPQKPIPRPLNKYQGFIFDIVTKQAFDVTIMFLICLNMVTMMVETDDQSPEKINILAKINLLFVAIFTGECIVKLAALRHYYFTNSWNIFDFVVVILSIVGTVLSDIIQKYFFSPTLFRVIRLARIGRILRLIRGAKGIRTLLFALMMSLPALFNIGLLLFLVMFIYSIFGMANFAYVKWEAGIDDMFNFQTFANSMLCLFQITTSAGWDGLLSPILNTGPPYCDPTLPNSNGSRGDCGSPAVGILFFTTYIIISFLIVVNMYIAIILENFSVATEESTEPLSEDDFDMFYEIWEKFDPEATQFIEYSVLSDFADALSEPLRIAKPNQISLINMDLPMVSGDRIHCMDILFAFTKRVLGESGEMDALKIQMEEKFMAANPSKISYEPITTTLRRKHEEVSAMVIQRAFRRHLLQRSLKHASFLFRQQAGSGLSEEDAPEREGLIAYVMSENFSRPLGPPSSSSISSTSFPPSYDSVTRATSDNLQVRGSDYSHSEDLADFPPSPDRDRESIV

[4] = mouse exposure / pharmacokinetics in formalin study (plasma, brain); type: in vivo; settings: for concentration at 0.25 hr: pre-tx time 0.25 hr, unbound
Method: (§1) Compound 100 was administered using the mouse automated formalin model at a dosage of 135 mg/kg p.o. Dosage was selected based upon projection from mouse exposure at 5 mg/kg.

[5] = ADME assays (solubility, CYP inhibition, in vitro metabolism); settings: in words
[6] = test system: mouse automated formalin model; assay: mouse automated formalin test; type: in vivo; settings: 135 mg/kg p.o.
Method: as §1

[7] = in vitro testing, read-out: potency against Nav1.7
[8] = 135 mg/kg p.o., 0.25 hr, versus FI IC50
[9] = 135 mg/kg p.o., 0.25 hr, versus SI IC50

hNav1.7, sequence (Q15858 whole entry): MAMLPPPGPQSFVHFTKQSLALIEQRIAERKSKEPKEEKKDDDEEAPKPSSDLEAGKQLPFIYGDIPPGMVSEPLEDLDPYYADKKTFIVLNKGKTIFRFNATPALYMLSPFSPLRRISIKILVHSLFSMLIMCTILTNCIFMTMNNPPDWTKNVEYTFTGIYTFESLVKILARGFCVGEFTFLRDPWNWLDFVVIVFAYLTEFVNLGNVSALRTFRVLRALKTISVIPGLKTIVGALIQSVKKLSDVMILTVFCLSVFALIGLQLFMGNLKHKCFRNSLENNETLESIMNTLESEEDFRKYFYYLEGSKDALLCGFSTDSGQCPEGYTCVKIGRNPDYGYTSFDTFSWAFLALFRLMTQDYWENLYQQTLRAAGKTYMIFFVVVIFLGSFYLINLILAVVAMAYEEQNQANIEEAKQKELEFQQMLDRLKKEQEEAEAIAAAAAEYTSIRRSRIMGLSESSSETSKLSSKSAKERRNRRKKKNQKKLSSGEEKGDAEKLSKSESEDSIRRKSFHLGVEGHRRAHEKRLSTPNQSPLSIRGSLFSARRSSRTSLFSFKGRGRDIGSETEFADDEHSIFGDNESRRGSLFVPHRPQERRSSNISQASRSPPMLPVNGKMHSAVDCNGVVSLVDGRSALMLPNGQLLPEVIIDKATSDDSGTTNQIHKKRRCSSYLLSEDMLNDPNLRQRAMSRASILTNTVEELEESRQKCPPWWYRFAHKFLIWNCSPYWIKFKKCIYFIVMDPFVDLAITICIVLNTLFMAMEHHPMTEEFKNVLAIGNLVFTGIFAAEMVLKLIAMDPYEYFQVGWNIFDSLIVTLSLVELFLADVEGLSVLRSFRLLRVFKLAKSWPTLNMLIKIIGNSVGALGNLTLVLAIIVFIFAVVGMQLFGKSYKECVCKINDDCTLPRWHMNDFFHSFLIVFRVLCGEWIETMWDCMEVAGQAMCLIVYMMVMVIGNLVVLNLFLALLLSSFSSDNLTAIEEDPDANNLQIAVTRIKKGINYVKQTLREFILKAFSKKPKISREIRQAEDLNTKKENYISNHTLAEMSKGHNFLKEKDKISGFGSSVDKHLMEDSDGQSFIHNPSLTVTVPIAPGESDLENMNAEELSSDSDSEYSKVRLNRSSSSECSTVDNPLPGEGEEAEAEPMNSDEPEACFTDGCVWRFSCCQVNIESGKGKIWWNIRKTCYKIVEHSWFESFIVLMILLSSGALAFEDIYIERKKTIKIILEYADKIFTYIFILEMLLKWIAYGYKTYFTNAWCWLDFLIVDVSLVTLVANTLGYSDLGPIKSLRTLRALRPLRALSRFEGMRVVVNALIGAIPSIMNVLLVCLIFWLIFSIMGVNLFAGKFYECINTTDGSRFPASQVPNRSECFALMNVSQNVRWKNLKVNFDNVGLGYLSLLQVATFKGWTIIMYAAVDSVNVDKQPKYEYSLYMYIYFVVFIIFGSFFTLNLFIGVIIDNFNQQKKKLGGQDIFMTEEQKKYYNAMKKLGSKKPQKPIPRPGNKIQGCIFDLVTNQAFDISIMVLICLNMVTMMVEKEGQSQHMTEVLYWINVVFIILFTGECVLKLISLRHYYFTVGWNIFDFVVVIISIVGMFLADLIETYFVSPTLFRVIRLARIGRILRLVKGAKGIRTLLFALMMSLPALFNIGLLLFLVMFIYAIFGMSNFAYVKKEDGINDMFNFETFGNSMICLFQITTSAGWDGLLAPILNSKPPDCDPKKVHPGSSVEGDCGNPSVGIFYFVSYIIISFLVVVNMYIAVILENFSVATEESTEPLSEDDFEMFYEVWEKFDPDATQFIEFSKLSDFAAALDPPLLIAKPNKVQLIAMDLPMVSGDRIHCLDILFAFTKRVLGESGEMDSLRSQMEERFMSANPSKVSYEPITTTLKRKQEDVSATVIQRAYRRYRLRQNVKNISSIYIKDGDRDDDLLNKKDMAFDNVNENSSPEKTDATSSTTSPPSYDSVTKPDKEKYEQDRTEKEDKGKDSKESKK

## Cc1ccc(F)cc1-c1c(C(=O)NCCCC(C)(C)CO)noc1-c1ccccc1 [Compound 130]
[1]
  subtype selectivity (Nav1.7 vs. Nav1.5): improved

## Cc1scc2c1N(C(=O)CN1CCN(C)CC1)c1ccccc1NC2=O [(−)-isomer, telenzepine]
[2]
  fold less active than the (+)-isomer: 500 ×

## CC(C)(CO)CCCNC(=O)c1noc(-c2ccccc2)c1-c1ccccc1 [Compound 106]
[3]; read-out: Nav1.5 IC50
  IC50: 180 nM
[1]; [7]
  IC50: 60 nM
[1]
  subtype selectivity (Nav1.7 vs. Nav1.5): remained poor

## CN(CCCC(C)(C)CO)C(=O)c1cc(-c2ccccc2)on1 [Compound 119]
[1]
  subtype selectivity (Nav1.7 vs. Nav1.5): improved

## CC(C)(CO)CCCNC(=O)c1cc(-c2ccccc2)on1 [Compound 100]
[4]; [8]
  Brain TER (FI): 0.2 (FI)
  Plasma TER (FI): 0.1 (FI)
[4]; [9]
  Brain TER (SI): 1.8 (SI)
  Plasma TER (SI): 1.2 (SI)
[4]; brain, po, mouse, 135 mg/kg p.o., read-out: Mean Brain, u
  concentration at 0.25 hr: 414 nM
[4]; in vivo, po, mouse
  Tmax: 15 min
  half-life: 66 min
[4]; plasma, po, mouse, 135 mg/kg p.o., read-out: Mean plasma, u
  concentration at 0.25 hr: 282 nM
[3]; read-out: Nav1.5 potency
  IC50: 1900 nM
[5]
  compound profiling in ADME assays: promising
[6]
  reduction in late-phase pain-induced reactions: 31.4%
[6]; pre-tx time 0.25 hr
  Percent Reversal in Late Phase Formalin: 31.4 ± 5.1%
[1]; FI, read-out: h1.7 IC50 (FI)
  IC50: 2020 nM
[1]; [7]
  IC50: 570 nM
[1]
  subtype selectivity (Nav1.7 vs. Nav1.5): poor selectivity
